Laboratory results reported in PMC3660367, “MARCKS Protein Is Phosphorylated and Regulates Calcium Mobilization during Human Acrosomal Exocytosis” (PLoS ONE, 2013).
No end group written: not given here.

Legend:
[1] = system: intracellular calcium levels in human spermatozoa; assay: Intracellular calcium measurement of human spermatozoa (Fluo-3-AM); format: cell-based; details: intact sperm, Fluo-3-AM 2 µM; 4 µM ED-TMR 30 min before 15 µM progesterone; three experiments
Protocol: Calcium levels were measured in sperm suspensions using the intracellular fluorescent probe Fluo-3-AM. Motile sperm were adjusted to a concentration of 5–10 ×10^6 cells/ml and loaded with the permeable form of the dye (Fluo-3-AM, 2 µM) for 30 min at 37°C. Cells were washed once and resuspended in HTF. Sperm suspensions were transferred to thermostated (37°C) cuvettes for fluorescence measurements and stirred constantly. At the indicated times, 15 µM progesterone was added to the samples. When indicated, sperm where incubated 30 min in presence of 4 µM of the permeable tetramethylrhodamine-labeled MARCKS ED (ED-TMR) before adding progesterone. Fluo-3 fluorescence (λEx = 505 nm, λEm = 525 nm emission) was recorded in an AMINCO-Bowman Series 2 (AB2) spectrofluorometer. […] To calibrate the maximal response, intracellular calcium concentration ([Ca^2+]i) was determined using Triton X-100 (0.1%). […]
Figure 5 Assessing MARCKS function on acrosomal exocytosis in non-permeabilized sperm. […] The increase in fluorescence is expressed as (F/F0)-1 ((maximum fluorescence intensity/initial fluorescence)-1) versus time in seconds. […] (D) Quantification of three independent experiments. […] Phosphorylated MARCKS was detected by Western blot assay using an anti-phospho-MARCKS antibody. […] Phosphorylated MARCKS was detected by Western blot assay using an anti-phospho-MARCKS antibody. […]

living human sperm = assay: Permeation of ED-TMR into non-permeabilized human sperm (fluorescence microscopy, trypsin treatment before fixation); format: cell-based; details: 4 µM ED-TMR 30 min 37°C, then 0.5 µg/ml trypsin 30 min 37°C before fixation
From the text: So far all results were obtained using the SLO-permeabilized human sperm model. […] Fortunately, MARCKS ED meets this requirement and it can be assayed in acrosomal exocytosis in non-permeabilized sperm. To investigate the function of MARCKS in intact cells, we analyzed the effect of a permeable peptide corresponding to wt MARCKS ED in living human sperm. We used a commercial MARCKS peptide, the tetramethylrhodamine-conjugated peptide sequence KKRFSFKKSFKL (ED-TMR) derived from amino acid residues 154 –165 of human MARCKS ED, which retains the first two of the four serine residues in the ED (see peptide scheme in Fig. 3A). First, we determined the permeability of ED-TMR in living human sperm (see Fig. S3). To rule out that the translocation of the protein was a fixation artifact, cells were treated with trypsin before fixation. […] A similar permeable MARCKS peptide has been used in sea urchin sperm and it was found enriched in the acrosome region.
Supplementary file pone.0064551.s003.tif: Figure S3 MARCKS peptide permeates into non-permeabilized sperm. (A) Non-permeabilized sperm were treated for 30 minutes at 37°C with 4 µM permeable MARCKS ED domain (ED-TMR) and then incubated with (+) or without (-) 0.5 µg/ml trypsin for 30 minutes at 37°C. […] (B) Quantification of tetramethylrhodamine-labeled acrosome sperm. At least 300 cells were scored. […]

KKRFSFKKSFKL (also: tetramethylrhodamine conjugate, site not given here) [ED-TMR, commercial (Anaspec) tetramethylrhodamine-conjugated peptide … from residues 154–165 of human MARCKS ED]
effect on the increase in calcium levels caused by progesterone [1]: significantly diminished | permeability of ED-TMR in living human sperm (localisation) (living human sperm): detected mainly in the head of human sperm
